Test system: HeLa cells
Test: Mitotic spindle immunofluorescence (tubulin) in transfected HeLa cells
Type: cell-based
Conditions: tubulin labeling
Procedure: HeLa cells transfected with wild type survivin (WT) or survivin(T34A) (T34A), were fixed in microtubule-stabilizing buffer (Li et al., 1998), and labeled with mAb 20C6 to […] -tubulin followed by FITC-conjugated goat anti-mouse IgG. Images were analyzed by confocal microscopy as described in FIG. 2C.
Transfection experiments. For transient transfection, HeLa cells in C-6 tissue culture plates (Costar, Cambridge, Mass.) at ˜60-70% confluency, were incubated in 1 ml of serum-free OptiMEM medium (Life Technologies, Gaithersburg, Md.) for 20 min, and transfected with 2.5 μg of the various plasmid cDNAs plus 9 μl Lipofectamine (Life Technologies). After a 5 h incubation at 37° C., the mixture was aspirated and substituted with complete growth medium for 48-72 h. To generate stable YUSAC-2 transfectants, a survivin(T34A) cDNA was inserted into the HindIII-SpeI sites of the pTet-splice vector (Dr. D. Schatz, Yale University School of Medicine), downstream of the regulatory sequences of the Tet-resistance operon (TetO). YUSAC-2 cells were transfected with 0.8 μg pTet-T34A, 0.8 μg of the transactivation/selection plasmid ptTA-Neo and 5 μl Lipofectamine in 1 ml of OptiMem. […] Gated GFP-expressing cells were analyzed for DNA content by flow cytometry on a FACSort (Becton Dickinson, San Jose, Calif.) using a Cell Quest software. […]

## survivin(T34A): dominant-negative, non-phosphorylatable survivin mutant with Thr34→Ala substitution, expressed from transfected cDNA (also HA- or GFP-tagged)
  mitotic spindle morphology: profound dysregulation of mitotic transitions

Source: patent US7553821B2, “Methods for selectively modulating survivin apoptosis pathways” (Yale University, priority 2000, dated 2009)
